Patent US20220298115A1, “SMALL MOLECULE INHIBITORS OF ACETYL COENZYME A SYNTHETASE SHORT CHAIN 2 (ACSS2)” (Curadev Pharma Pvt. Ltd., priority 2019, published 2022)
Where two headings read alike, the source gives them in different places.

Experiments:
human ACSS2 = target: T1, human ACSS2 (Homo sapiens, UniProt Q9NR19); experiment: ACSS2 enzyme assay (acetyl-CoA formation, LC-MS/MS); assay type: biochemical; conditions: cytosolic fraction of BT474 cells as ACSS2 source; 100 μM acetate, CoA and ATP; 2 h at 25° C.; read-out: Enzyme Activity (IC50 range)
T1 construct: The cytosolic fraction of BT474 cells was used as a source of the ACSS2 enzyme; endogenous in cells; host or cells: BT474 cells (cytosolic fraction)
T1 sequence (Q9NR19 whole entry): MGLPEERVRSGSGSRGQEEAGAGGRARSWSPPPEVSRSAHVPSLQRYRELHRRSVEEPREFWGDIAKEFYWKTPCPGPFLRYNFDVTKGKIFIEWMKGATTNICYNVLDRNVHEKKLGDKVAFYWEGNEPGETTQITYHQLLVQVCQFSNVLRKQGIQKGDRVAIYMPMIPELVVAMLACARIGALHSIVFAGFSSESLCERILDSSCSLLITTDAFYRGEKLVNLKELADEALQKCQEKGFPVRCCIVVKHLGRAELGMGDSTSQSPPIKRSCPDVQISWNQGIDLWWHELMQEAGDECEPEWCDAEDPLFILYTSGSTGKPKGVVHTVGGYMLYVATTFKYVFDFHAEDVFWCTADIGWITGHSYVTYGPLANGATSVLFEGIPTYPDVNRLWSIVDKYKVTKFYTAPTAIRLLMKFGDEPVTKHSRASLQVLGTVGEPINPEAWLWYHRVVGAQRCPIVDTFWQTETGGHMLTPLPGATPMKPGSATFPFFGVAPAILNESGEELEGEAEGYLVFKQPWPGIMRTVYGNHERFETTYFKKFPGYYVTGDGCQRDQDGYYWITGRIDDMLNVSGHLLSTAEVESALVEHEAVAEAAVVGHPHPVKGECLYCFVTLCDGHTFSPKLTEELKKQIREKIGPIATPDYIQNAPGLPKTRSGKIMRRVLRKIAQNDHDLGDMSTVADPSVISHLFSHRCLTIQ
Experimental: Novel compounds were screened in a human ACSS2 enzyme assay. Briefly, the ACSS2 enzyme reaction was monitored by directly measuring acetyl-CoA formation. The cytosolic fraction of BT474 cells was used as a source of the ACSS2 enzyme. A short protocol for this assay is provided below.
Preparation of Cytosolic Fraction from BT474 Cells
9×10^6 cells were harvested by trypsinization followed by centrifugation. The cell pellet was washed with PBS and dissolved in 500 μl STM buffer (50 mM Tris-HCl pH7.4, 250 mM sucrose, 5 mM MgCl2 & protease-phosphatase inhibitor cocktail) and homogenized at 600-1000 rpm for 1 min. on ice followed by incubation for 30 min. with intermittent vortexing. Supernatant was collected by centrifugation at 800 g for 15 min. at 4° C. Cytosolic fraction was prepared by further centrifugation of the supernatant at 12000 g for 15 min. at 4° C. Total protein content of the cytosolic fraction was estimated & diluted to 1 mg/ml concentration in storage buffer (25 mM Tris-HCl pH7.4, 1 mM MgCl2, 1 mM DTT & 10% glycerol) and stored at −80° C. for further use.
100 ng of cytosolic fraction in buffer composed of 25 mM Tris-HCl pH7.4 1 mM MgCl2, 1 mM DTT & 0.05% Tween20 was preincubated with desired concentrations of novel compounds for 5 min. maintaining 1% DMSO. Reaction was started with addition of substrate mix (100 μM of acetate, CoA and ATP) and incubated for 2 h at 25° C. with constant shaking at 500 rpm. Post incubation the reaction was terminated by addition of 10% TCA followed by 5 fold dilution in water. The reaction mixture was centrifuged at 800 g for 10 min. at RT and acetyl-CoA detected in supernatant by LC-MS/MS (QTrap5500 ABSCIEX).

[1] = system: [14C] acetate incorporation in macromolecules, BT474 cells; experiment: Cell based [14C] acetate incorporation assay; conditions: read-out: Cellular Activity (IC50 range)
Experimental: Cell Based [^14C] Acetate Incorporation Assay
In the cellular assay, ACSS2 inhibitors were screened against [^14C] acetate incorporation in macromolecules. 4×10^4 BT474 cells were plated in 96 well plates in growth media composed of DMEM & 10% FBS and incubated overnight in a 37° C., 5% CO2 incubator. The following day the cells were washed in HBSS and the assay was performed in 100 μl of HBSS. 50 μl of 4× compound in 4% DMSO was added to the cells and preincubated for 10 min. at 37° C. 50 μl of acetate solution (0.1 μCi ^14C acetate+10 μM ^12C acetate) was added to each well of the plate and incubated for 3 h in a 37° C., 5% CO2 incubator. Following incubation, cells were harvested with water on polyethylene imine (PEI) presoaked GF/C filtermat, air dried and radioactive count were recorded in Trilux micro beta Liquid Scintillation Counter (PerkinElmer).

[2] = Homo sapiens, BT-474, 3 h at 37° C.

With `CCC(O)CNC(=O)Nc1ccc2nc(-c3ccccc3)c(-c3ccccc3)cc2c1` (stereo not shown) [Example 1, 1-(2,3-diphenylquinolin-6-yl)-3-(2-hydroxybutyl) urea] the IC50 (human ACSS2) was under 100 nM and the IC50 [1, 2] was under 100 nM.
Compound `CC[C@@H](O)CNC(=O)Nc1ccc2nc(-c3ccccc3)c(-c3ccccc3)cc2c1` [Example 2, (R)-1-(2,3-diphenylquinolin-6-yl)-3-(2-hydroxybutyl) urea] has an IC50 (human ACSS2) of under 100 nM and an IC50 [1, 2] of under 100 nM.
`CCCCNC(=O)Nc1ccc2nc(-c3ccccc3)c(-c3ccccc3)cc2c1` [Example 3, 1-butyl-3-(2,3-diphenylquinolin-6-yl)urea] showed an IC50 (human ACSS2) of under 100 nM and an IC50 [1, 2] of under 100 nM.
Work on `CCC(O)CNC(=O)Nc1ccc2nc(-c3ccccc3F)c(-c3ccccc3F)cc2c1` (stereo not shown) [Example 4, 1-(2,3-bis(2-fluorophenyl)quinolin-6-yl)-3-(2-hydroxybutyl) urea] yielded an IC50 (human ACSS2) of under 100 nM and an IC50 [1, 2] of under 100 nM.
In the case of `CCCCNC(=O)Nc1ccc2nc(-c3ccccc3)c(-c3ccccc3)cc2c1-c1cccnc1O` [Example 5, 1-butyl-3-(5-(2-hydroxypyridin-3-yl)-2,3-diphenylquinolin-6-yl)urea], the IC50 (human ACSS2) is reported as under 100 nM and the IC50 [1, 2] is reported as under 100 nM.
`CCC(O)CNC(=O)Nc1ccc2nc(-c3ccccc3OC)c(-c3ccccc3OC)cc2c1` (stereo not shown) [Example 6, 1-(2,3-bis(2-methoxyphenyl)quinolin-6-yl)-3-(2-hydroxybutyl) urea] was tested, and the IC50 (human ACSS2) was under 100 nM and the IC50 [1, 2] was under 100 nM.
Work on `CCC(O)CNC(=O)Nc1ccc2nc(-c3ccccc3)c(-c3ccccc3F)cc2c1` (stereo not shown) [Example 7, 1-(3-(2-fluorophenyl)-2-phenylquinolin-6-yl)-3-(2-hydroxybutyl) urea] yielded an IC50 (human ACSS2) of under 100 nM and an IC50 [1, 2] of under 100 nM.
`CCC(O)CNC(=O)Nc1ccc2nc(-c3ccccc3F)c(-c3ccccc3)cc2c1` (stereo not shown) [Example 8, 1-(2-(2-fluorophenyl)-3-phenylquinolin-6-yl)-3-(2-hydroxybutyl) urea] gave an IC50 (human ACSS2) of under 100 nM and an IC50 [1, 2] of under 100 nM.
Work on `CCC(O)CNC(=O)Nc1ccc2nc(-c3ccnc(OC)c3)c(-c3ccnc(OC)c3)cc2c1` (stereo not shown) [Example 9, 1-(2,3-bis(2-methoxypyridin-4-yl)quinolin-6-yl)-3-(2-hydroxybutyl) urea] yielded an IC50 (human ACSS2) of over 10000 nM and an IC50 [1, 2] of at most 10000 nM.
`CCC(O)CNC(=O)Nc1ccc2nc(-c3ccccc3)c(-c3ccccc3OC)cc2c1` (stereo not shown) [Example 10, 1-(2-hydroxybutyl)-3-(3-(2-methoxyphenyl)-2-phenylquinolin-6-yl)urea] showed an IC50 (human ACSS2) of under 100 nM and an IC50 [1, 2] of under 100 nM.
Compound `CCC(O)CNC(=O)Nc1ccc2nc(-c3ccc(OC)nc3)c(-c3ccc(OC)nc3)cc2c1` (stereo not shown) [Example 11, 1-(2,3-bis(6-methoxypyridin-3-yl)quinolin-6-yl)-3-(2-hydroxybutyl) urea] has an IC50 (human ACSS2) of at most 1000 nM and an IC50 [1, 2] of at most 10000 nM.
`CCC(O)CNC(=O)Nc1ccc2nc(-c3ccccc3OC)c(-c3ccccc3)cc2c1` (stereo not shown) [Example 12, 1-(2-hydroxybutyl)-3-(2-(2-methoxyphenyl)-3-phenylquinolin-6-yl)urea] gave an IC50 (human ACSS2) of under 100 nM and an IC50 [1, 2] of under 100 nM.
`CCC(O)CNC(=O)Nc1ccc2nc(-c3cccnc3OC)c(-c3cccnc3OC)cc2c1` (stereo not shown) [Example 13, 1-(2,3-bis(2-methoxypyridin-3-yl)quinolin-6-yl)-3-(2-hydroxybutyl) urea] gave an IC50 (human ACSS2) of at most 1000 nM and an IC50 [1, 2] of at most 1000 nM.
`CCCCNC(=O)Nc1ccc2nc(-c3ccccc3F)c(-c3ccccc3F)cc2c1` [Example 14, 1-(2,3-bis(2-fluorophenyl)quinolin-6-yl)-3-butylurea] showed an IC50 (human ACSS2) of under 100 nM and an IC50 [1, 2] of under 100 nM.
`CC[C@@H](O)CNC(=O)Nc1ccc2nc(-c3ccccc3)c(-c3ccccc3F)cc2c1` [Example 15, (R)-1-(3-(2-Fluorophenyl)-2-phenylquinolin-6-yl)-3-(2-hydroxybutyl)urea] showed an IC50 (human ACSS2) of under 100 nM and an IC50 [1, 2] of under 100 nM.
`CC[C@H](O)CNC(=O)Nc1ccc2nc(-c3ccccc3)c(-c3ccccc3)cc2c1` [Example 68, (S)-1-(2,3-diphenylquino-lin-6-yl)-3-(2-hydroxybutyl) urea] gave an IC50 ([1]; 3 h at 37° C.) of under 100 nM.
